Measurements from patent US12459916B2, “Substituted indazoles useful for treatment and prevention of allergic and/or inflammatory diseases in animals” (Bayer Pharma Aktiengesellschaft, priority 2016, dated 2025).
Read-outs that look alike come from different tables or passages of the source.

Key:
canine IRAK4 = canine IRAK4 (Canis lupus familiaris, UniProt A0A8I3S726); assay: Canine IRAK4 kinase assay (TR-FRET); format: biochemical
Description: The IRAK4-inhibitory activity of the present compounds on canine IRAK4 was measured in the Irak4 TR-FRET assay (TR-FRET=Time Resolved Fluorescence Resonance Energy Transfer) described hereinafter.
Recombinant fusion protein from N-terminal HIS (Poly-histidine) and canine Irak4, expressed in baculovirus-infected insect cells (Hi5, BTI-TN-5B1-4, cell line purchased from Invitrogen, catalogue No. B855-02) and purified via affinity chromatography, was used as enzyme. The substrate used for the kinase reaction was the biotinylated peptide biotin-Ahx-[…]
50 nl of the respective solution were pipetted into a black low-volume 384-well microtitre plate (Greiner Bio-One, Frickenhausen, Germany), 2 μl of a solution of Irak4 in assay buffer [50 mM HEPES pH 7.5, 5 mM MgCl2, 1.0 mM dithiothreitol, 30 μM activated sodium orthovanadate, 0.1% (w/v) of bovine gamma-globulin (BGG) 0.04% (v/v) nonidet-P40 (Sigma)] were added and the mixture was incubated for 15 min to allow prebinding of the substances to the enzyme prior to the kinase reaction. […] The concentration of the Irak4 was adjusted to the respective activity of the enzyme and set such that the assay was carried out in the linear range. Typical concentrations were in the order of about 0.1 nM.
The resulting mixture was incubated at 22° C. for 1 h to allow formation of a complex of the biotinylated phosphorylated substrate and the detection reagents. The amount of the phosphorylated substrate was then evaluated by measuring the resonance energy transfer from europium chelate-labelled anti-mouse-IgG antibody to streptavidin-XL665. […] The IC50 values were calculated by a 4-parameter fit.

[1] = tested on: secretion of TNF-α in THP-1 cells; assay: TNF-α secretion in THP-1 cells; format: cell-based; conditions: Homo sapiens, LPS 0.05 μg/ml, 17 h, read-out: IC50 with respect to the secretion of TNF-α in THP-1 cells
Description: This test is suited to test substances for their ability to inhibit secretion of TNF-α (tumour necrosis factor alpha) in THP-1 cells (human monocytic acute leukaemia cell line). TNF-α is a cytokine involved in inflammatory processes. In this test, TNF-α secretion is triggered by incubation with bacterial lipopolysaccharide (LPS).
The cells were incubated at room temperature for 15 min. 2-2.5 μl of 0.1 μg/ml LPS (Sigma, Escherichia coli 055:B5, Cat. No. L5418) dissolved in cell culture medium (final concentration 0.05 μg/ml) were then dispensed into each well. As neutral control, cells were treated with 0.05 μg/ml LPS and 1% DMSO and, as inhibitor control, with 1% DMSO only.
The amount of TNF-α was determined using the TNF-alpha HTRF Detection Kit (Cisbio, Cat. No. 62TNFPEB/C). To this end, 2 μl of the detection solution in each case, consisting of anti-TNF-α-XL665 conjugate and anti-TNF-α-cryptate conjugate dissolved in the reconstitution buffer in accordance with the manufacturer's instructions, were added for the HTRF (Homogeneous Time-Resolved Fluorescence) test. After the addition, the mixture was incubated either at room temperature for 3 h or at 4° C. overnight.
The activity of the substances is expressed as the ratio between neutral and inhibitor control in percent. The IC50 values were calculated using a 4-parameter fit.

[2] = IC50 in the IRAK4 canine kinase assay, values from two experiments, 1 mM ATP
[3] = recombinant canine IRAK4 enzyme, read-out: IC50 for the inhibition of canine IRAK4

Sequence of canine IRAK4 (A0A8I3S726 1-460): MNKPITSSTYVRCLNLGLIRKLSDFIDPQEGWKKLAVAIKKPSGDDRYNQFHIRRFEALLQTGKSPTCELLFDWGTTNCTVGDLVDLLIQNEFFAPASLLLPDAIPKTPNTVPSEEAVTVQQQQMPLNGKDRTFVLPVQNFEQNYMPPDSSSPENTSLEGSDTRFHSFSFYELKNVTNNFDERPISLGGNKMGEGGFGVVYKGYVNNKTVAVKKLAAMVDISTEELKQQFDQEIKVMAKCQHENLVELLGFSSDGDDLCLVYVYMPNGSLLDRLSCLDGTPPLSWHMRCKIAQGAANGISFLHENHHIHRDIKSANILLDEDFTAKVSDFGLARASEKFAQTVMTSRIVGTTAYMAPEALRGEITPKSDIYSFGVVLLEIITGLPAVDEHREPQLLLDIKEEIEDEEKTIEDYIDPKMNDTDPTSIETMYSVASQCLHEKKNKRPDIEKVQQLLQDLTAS

Work on `CC(C)(O)CCn1cc2cc(NC(=O)c3cccc(C(F)F)n3)c(C(C)(C)O)cc2n1` [Example 13, 6-(Difluoromethyl)-N-[2-(3-hydroxy-3-methylbutyl)-6-(2-hydroxypropan-2-yl)-2H-indazol-5-yl]pyridine-2-carboxamide] yielded an IC50 (canine IRAK4; [2]) of 2.68 nM, an IC50 (canine IRAK4; [3]) of 2.2 nM and an IC50 [1] of 100 nM.

For `Cc1nc(C(=O)Nc2cc3cn(CCC(C)(C)O)nc3cc2C(C)(C)O)ccc1F` [Example 19, 5-Fluoro-N-[2-(3-hydroxy-3-methylbutyl)-6-(2-hydroxypropan-2-yl)-2H-indazol-5-yl]-6-methylpyridine-2-carboxamide], the IC50 (canine IRAK4; [2]) was 6.75 nM, the IC50 (canine IRAK4; [3]) was 7.6 nM and the IC50 [1] was 100 nM.
